Reference: the supplement of paper PMC10627819

Legend:
Assay in all cases: fitness (endpoint OD595 vs no drug) (fraction); higher = more growth
S. aureus Newman = tested on: S. aureus Newman
In short: (§1)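 With the first reading as background, OD595 was measured every 30 min for 14 h in 384-well plates kept at 37 °C and inoculated at OD595 0.01. TSB, LB Lennox or CY was the medium. Fitness is the optical density at the transition into stationary phase divided by the robust mean of no-drug control wells, with a cap of 1.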

S. pneumoniae D39V = tested on: S. pneumoniae D39V
In short: as §1

S. aureus DSM 20231 = tested on: S. aureus DSM 20231
In short: as §1

[1] = first compound 0.0156 µg/mL, partner 0.1562 µg/mL, main component drawn
[2] = first compound 0.0156 µg/mL, partner 0.3125 µg/mL, main component drawn
[3] = first compound 0.0156 µg/mL, partner 0.625 µg/mL, main component drawn
[4] = first compound 0.0312 µg/mL, partner 0.1562 µg/mL, main component drawn
[5] = first compound 0.0312 µg/mL, partner 0.3125 µg/mL, main component drawn
[6] = first compound 0.0312 µg/mL, partner 0.625 µg/mL, main component drawn
[7] = first compound 0.0625 µg/mL, partner 0.1562 µg/mL, main component drawn
[8] = first compound 0.0625 µg/mL, partner 0.3125 µg/mL, main component drawn
[9] = first compound 0.0625 µg/mL, partner 0.625 µg/mL, main component drawn
[10] = first compound 0.0156 µg/mL, partner 0.625 µg/mL
[11] = first compound 0.0156 µg/mL, partner 1.25 µg/mL
[12] = first compound 0.0156 µg/mL, partner 2.5 µg/mL
[13] = first compound 0.0312 µg/mL, partner 0.625 µg/mL
[14] = first compound 0.0312 µg/mL, partner 1.25 µg/mL
[15] = first compound 0.0312 µg/mL, partner 2.5 µg/mL
[16] = first compound 0.0625 µg/mL, partner 0.625 µg/mL
[17] = first compound 0.0625 µg/mL, partner 1.25 µg/mL
[18] = first compound 0.0625 µg/mL, partner 2.5 µg/mL
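Further: OD595 on entry to stationary phase over no-drug wells; at most 1.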

SMILES: CO[C@@]12[C@H](COC(N)=O)C3=C(C(=O)C(C)=C(N)C3=O)N1C[C@@H]1N[C@@H]12 [Mitomycin C] + CC1(C)S[C@@H]2[C@H](NC(=O)Cc3ccccc3)C(=O)N2[C@H]1C(=O)O [Penicillin G]
- fitness (S. aureus Newman; first compound 0.0156 µg/mL, partner 0.0195 µg/mL): 0.671
- fitness (S. aureus Newman; first compound 0.0156 µg/mL, partner 0.039 µg/mL): 0.646
- fitness (S. aureus Newman; first compound 0.0156 µg/mL, partner 0.078 µg/mL): 0.636
- fitness (S. aureus Newman; first compound 0.0312 µg/mL, partner 0.0195 µg/mL): 0.562
- fitness (S. aureus Newman; first compound 0.0312 µg/mL, partner 0.039 µg/mL): 0.556
- fitness (S. aureus Newman; first compound 0.0312 µg/mL, partner 0.078 µg/mL): 0.564
- fitness (S. aureus Newman; first compound 0.0625 µg/mL, partner 0.0195 µg/mL): 0.441
- fitness (S. aureus Newman; first compound 0.0625 µg/mL, partner 0.039 µg/mL): 0.389
- fitness (S. aureus Newman; first compound 0.0625 µg/mL, partner 0.078 µg/mL): 0.412

SMILES: CO[C@@]12[C@H](COC(N)=O)C3=C(C(=O)C(C)=C(N)C3=O)N1C[C@@H]1N[C@@H]12 [Mitomycin C] + O=C1CN(/N=C/c2ccc([N+](=O)[O-])o2)C(=O)N1 [Nitrofurantoin]
- fitness (S. pneumoniae D39V; first compound 0.001075 µg/mL, partner 2 µg/mL): 0.889
- fitness (S. pneumoniae D39V; first compound 0.001075 µg/mL, partner 4 µg/mL): 0.866
- fitness (S. pneumoniae D39V; first compound 0.001075 µg/mL, partner 8 µg/mL): 0.803
- fitness (S. pneumoniae D39V; first compound 0.002 µg/mL, partner 1.285 µg/mL): 0.896
- fitness (S. pneumoniae D39V; first compound 0.002 µg/mL, partner 2.57 µg/mL): 0.839
- fitness (S. pneumoniae D39V; first compound 0.002 µg/mL, partner 5.14 µg/mL, one replicate): 0.723
- fitness (S. pneumoniae D39V; first compound 0.00215 µg/mL, partner 2 µg/mL): 0.883
- fitness (S. pneumoniae D39V; first compound 0.00215 µg/mL, partner 4 µg/mL): 0.835
- fitness (S. pneumoniae D39V; first compound 0.00215 µg/mL, partner 8 µg/mL): 0.755
- fitness (S. pneumoniae D39V; first compound 0.004 µg/mL, partner 1.285 µg/mL): 0.74
- fitness (S. pneumoniae D39V; first compound 0.004 µg/mL, partner 2.57 µg/mL): 0.765
- fitness (S. pneumoniae D39V; first compound 0.004 µg/mL, partner 5.14 µg/mL, one replicate): 0.613
- fitness (S. pneumoniae D39V; first compound 0.0043 µg/mL, partner 2 µg/mL): 0.759
- fitness (S. pneumoniae D39V; first compound 0.0043 µg/mL, partner 4 µg/mL): 0.679
- fitness (S. pneumoniae D39V; first compound 0.0043 µg/mL, partner 8 µg/mL): 0.554
- fitness (S. pneumoniae D39V; first compound 0.008 µg/mL, partner 1.285 µg/mL): 0.588
- fitness (S. pneumoniae D39V; first compound 0.008 µg/mL, partner 2.57 µg/mL): 0.535
- fitness (S. pneumoniae D39V; first compound 0.008 µg/mL, partner 5.14 µg/mL, one replicate): 0.419

SMILES: CO[C@@]12[C@H](COC(N)=O)C3=C(C(=O)C(C)=C(N)C3=O)N1C[C@@H]1N[C@@H]12 [Mitomycin C] + CCCCCCCCCC(=O)N[C@@H]1[C@H]([C@@H]([C@H](O[C@H]1OC2=C3C=C4C=C2OC5=C(C=C(C=C5)[C@H]([C@H]6C(=O)N[C@@H](C7=C(C(=CC(=C7)O)OC8[C@H]([C@H]([C@@H]([C@H](O8)CO)O)O)O)C9=C(C=CC(=C9)[C@H](C(=O)N6)NC(=O)[C@@H]4NC(=O)[C@@H]1C2=CC(=CC(=C2)OC2=C(C=CC(=C2)[C@H](C(=O)N[C@H](CC2=CC(=C(O3)C=C2)Cl)C(=O)N1)N)O)O)O)C(=O)O)O[C@H]1[C@@H]([C@H]([C@@H]([C@H](O1)CO)O)O)NC(=O)C)Cl)CO)O)O [Teicoplanin]
- fitness (S. aureus DSM 20231; [1]): 0.813
- fitness (S. aureus DSM 20231; [2]): 0.855
- fitness (S. aureus DSM 20231; [3]): 0.902
- fitness (S. aureus DSM 20231; [4]): 0.757
- fitness (S. aureus DSM 20231; [5]): 0.81
- fitness (S. aureus DSM 20231; [6]): 0.814
- fitness (S. aureus DSM 20231; [7]): 0.513
- fitness (S. aureus DSM 20231; [8]): 0.418
- fitness (S. aureus DSM 20231; [9]): 0.255
- fitness (S. aureus Newman; [1]): 0.741
- fitness (S. aureus Newman; [2]): 0.753
- fitness (S. aureus Newman; first compound 0.0156 µg/mL, partner 0.62 µg/mL, one replicate, main component drawn): 0.603
- fitness (S. aureus Newman; [3]): 0.568
- fitness (S. aureus Newman; first compound 0.0156 µg/mL, partner 1.24 µg/mL, one replicate, main component drawn): 0.482
- fitness (S. aureus Newman; first compound 0.0156 µg/mL, partner 2.48 µg/mL, one replicate, main component drawn): 0.0779
- fitness (S. aureus Newman; [4]): 0.655
- fitness (S. aureus Newman; [5]): 0.582
- fitness (S. aureus Newman; first compound 0.0312 µg/mL, partner 0.62 µg/mL, one replicate, main component drawn): 0.482
- fitness (S. aureus Newman; [6]): 0.417
- fitness (S. aureus Newman; first compound 0.0312 µg/mL, partner 1.24 µg/mL, one replicate, main component drawn): 0.322
- fitness (S. aureus Newman; first compound 0.0312 µg/mL, partner 2.48 µg/mL, one replicate, main component drawn): 0.119
- fitness (S. aureus Newman; [7]): 0.429
- fitness (S. aureus Newman; [8]): 0.296
- fitness (S. aureus Newman; first compound 0.0625 µg/mL, partner 0.62 µg/mL, one replicate, main component drawn): 0.141
- fitness (S. aureus Newman; [9]): 0.138
- fitness (S. aureus Newman; first compound 0.0625 µg/mL, partner 1.24 µg/mL, one replicate, main component drawn): 0.02
- fitness (S. aureus Newman; first compound 0.0625 µg/mL, partner 2.48 µg/mL, one replicate, main component drawn): 0.0423

SMILES: CO[C@@]12[C@H](COC(N)=O)C3=C(C(=O)C(C)=C(N)C3=O)N1C[C@@H]1N[C@@H]12 [Mitomycin C] + Cc1ncc([N+](=O)[O-])n1CCO [Metronidazole]
- fitness (S. aureus DSM 20231; [10]): 0.775
- fitness (S. aureus DSM 20231; [11]): 0.873
- fitness (S. aureus DSM 20231; [12]): 0.799
- fitness (S. aureus DSM 20231; [13]): 0.756
- fitness (S. aureus DSM 20231; [14]): 0.782
- fitness (S. aureus DSM 20231; [15]): 0.779
- fitness (S. aureus DSM 20231; [16]): 0.593
- fitness (S. aureus DSM 20231; [17]): 0.606
- fitness (S. aureus DSM 20231; [18]): 0.643
- fitness (S. aureus Newman; [10]): 0.75
- fitness (S. aureus Newman; first compound 0.0156 µg/mL, partner 0.781 µg/mL, one replicate): 0.737
- fitness (S. aureus Newman; [11]): 0.766
- fitness (S. aureus Newman; first compound 0.0156 µg/mL, partner 1.562 µg/mL, one replicate): 0.731
- fitness (S. aureus Newman; [12]): 0.709
- fitness (S. aureus Newman; first compound 0.0156 µg/mL, partner 3.124 µg/mL, one replicate): 0.704
- fitness (S. aureus Newman; [13]): 0.649
- fitness (S. aureus Newman; first compound 0.0312 µg/mL, partner 0.781 µg/mL, one replicate): 0.703
- fitness (S. aureus Newman; [14]): 0.698
- fitness (S. aureus Newman; first compound 0.0312 µg/mL, partner 1.562 µg/mL, one replicate): 0.689
- fitness (S. aureus Newman; [15]): 0.569
- fitness (S. aureus Newman; first compound 0.0312 µg/mL, partner 3.124 µg/mL, one replicate): 0.747
- fitness (S. aureus Newman; [16]): 0.524
- fitness (S. aureus Newman; first compound 0.0625 µg/mL, partner 0.781 µg/mL, one replicate): 0.581
- fitness (S. aureus Newman; [17]): 0.517
- fitness (S. aureus Newman; first compound 0.0625 µg/mL, partner 1.562 µg/mL, one replicate): 0.625
- fitness (S. aureus Newman; [18]): 0.369
- fitness (S. aureus Newman; first compound 0.0625 µg/mL, partner 3.124 µg/mL, one replicate): 0.584
- fitness (S. pneumoniae D39V; first compound 0.001075 µg/mL, partner 1.25 µg/mL): 0.972
- fitness (S. pneumoniae D39V; first compound 0.001075 µg/mL, partner 2.5 µg/mL): 0.974
- fitness (S. pneumoniae D39V; first compound 0.001075 µg/mL, partner 5 µg/mL): 0.93
- fitness (S. pneumoniae D39V; first compound 0.002 µg/mL, partner 1.073 µg/mL): 0.853
- fitness (S. pneumoniae D39V; first compound 0.002 µg/mL, partner 2.145 µg/mL): 0.812
- fitness (S. pneumoniae D39V; first compound 0.002 µg/mL, partner 4.29 µg/mL): 0.791
- fitness (S. pneumoniae D39V; first compound 0.00215 µg/mL, partner 1.25 µg/mL): 0.971
- fitness (S. pneumoniae D39V; first compound 0.00215 µg/mL, partner 2.5 µg/mL): 0.984
- fitness (S. pneumoniae D39V; first compound 0.00215 µg/mL, partner 5 µg/mL): 0.933
- fitness (S. pneumoniae D39V; first compound 0.004 µg/mL, partner 1.073 µg/mL): 0.802
- fitness (S. pneumoniae D39V; first compound 0.004 µg/mL, partner 2.145 µg/mL): 0.806
- fitness (S. pneumoniae D39V; first compound 0.004 µg/mL, partner 4.29 µg/mL): 0.742
- fitness (S. pneumoniae D39V; first compound 0.0043 µg/mL, partner 1.25 µg/mL): 0.857
- fitness (S. pneumoniae D39V; first compound 0.0043 µg/mL, partner 2.5 µg/mL): 0.852
- fitness (S. pneumoniae D39V; first compound 0.0043 µg/mL, partner 5 µg/mL): 0.836
- fitness (S. pneumoniae D39V; first compound 0.008 µg/mL, partner 1.073 µg/mL): 0.72
- fitness (S. pneumoniae D39V; first compound 0.008 µg/mL, partner 4.29 µg/mL): 0.735
